Consider 29 molecules from US20260297070A1, “CYCLIC [COMPOUND LEFT OUT] WRN INHIBITORS” (Nimbus Wadjet, Inc., priority 2023, published 2026).

For this test, the target named is T1, human Werner helicase (WRN-BV08, Uniprot Q14191, amino acids 517-1235 with L1074F point mutation) (Homo sapiens, UniProt Q14191, L1074F).
T1 construct: Uniprot Q14191, amino acids 517-1235 with L1074F point mutation; TEV-cleavable 8×His (C, cleaved yes); made in house; host or cells: Sf9 insect cells (baculovirus)
T1 sequence (Q14191 with tags, fused parts or gaps L1074F limits assumed): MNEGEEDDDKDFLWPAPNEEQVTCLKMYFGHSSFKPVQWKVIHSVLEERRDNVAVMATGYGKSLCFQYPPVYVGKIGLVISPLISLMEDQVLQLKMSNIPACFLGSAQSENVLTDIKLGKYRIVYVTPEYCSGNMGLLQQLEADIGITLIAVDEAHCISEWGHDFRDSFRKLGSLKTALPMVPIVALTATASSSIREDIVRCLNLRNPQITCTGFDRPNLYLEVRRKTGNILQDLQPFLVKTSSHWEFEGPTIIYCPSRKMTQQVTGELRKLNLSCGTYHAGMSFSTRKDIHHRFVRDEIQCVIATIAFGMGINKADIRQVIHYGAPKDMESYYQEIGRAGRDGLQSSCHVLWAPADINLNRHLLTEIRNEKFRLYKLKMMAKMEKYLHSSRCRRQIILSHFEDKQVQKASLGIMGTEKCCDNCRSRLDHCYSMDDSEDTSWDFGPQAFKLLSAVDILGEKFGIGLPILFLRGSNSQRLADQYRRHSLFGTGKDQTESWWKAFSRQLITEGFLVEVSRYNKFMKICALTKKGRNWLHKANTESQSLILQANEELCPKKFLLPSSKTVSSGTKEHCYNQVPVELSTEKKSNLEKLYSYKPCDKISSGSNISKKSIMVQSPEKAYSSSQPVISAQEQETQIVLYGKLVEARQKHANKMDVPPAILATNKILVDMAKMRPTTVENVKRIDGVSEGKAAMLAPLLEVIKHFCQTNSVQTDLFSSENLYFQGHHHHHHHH
The experiment in a line: WRN (BV08) ADP-Glo Assay. In kind it is biochemical. The note with it: 0.15 nM WRN, 5 μM ATP, 0.1 nM DNA duplex, 15 min preincubation, 60 min at 25° C., pH 7.5, 1% DMSO; read-out: ADP-Glo_hWRN_IC50. The method in brief:
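Helicase ATPase activity is measured at 25 °C over 60 min using 0.15 nM enzyme, 5 μM ATP and 0.1 nM DNA duplex, final DMSO 1%. ADP production is detected by luminescence, with IC50 derived by curve fitting.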
On to `O=C(CC12CC(c3ccccc3)(C1)C2)N(Cc1ccncc1)C1C=CS(=O)(=O)C1` (centres unmarked) [I-439, N-(1,1-dioxo-2,3-dihydro-1lambda6-thiophen-3-yl)-2-{3-phenylbicyclo[1.1.1]pentan-1-yl}-N-[(pyridin-4-yl)methyl]acetamide], for which the IC50 is greater than 50 µM. For `O=C(Cc1nc(C2CCCC2)cs1)N(Cc1ccncc1)C1C=CS(=O)(=O)C1` (centres unmarked) [I-440, 2-(4-cyclopentyl-1,3-thiazol-2-yl)-N-(1,1-dioxo-2,3-dihydro-1lambda6-thiophen-3-yl)-N-[(pyridin-4-yl)methyl]acetamide], the IC50 was greater than 50 µM.

Turning to `Cc1ccnn1-c1ccc(CC(=O)N(Cc2ccncc2)C2C=CS(=O)(=O)C2)cc1` (centres unmarked) [I-441, N-(1,1-dioxo-2,3-dihydro-1lambda6-thiophen-3-yl)-2-[4-(5-methyl-1H-pyrazol-1-yl)phenyl]-N-[(pyridin-4-yl)methyl]acetamide], the IC50 is greater than 50 µM.

For `O=C(Cn1nnc(-c2ccccc2)n1)N(Cc1ccncc1)C1C=CS(=O)(=O)C1` (centres unmarked) [I-442, N-(1,1-dioxo-2,3-dihydro-1lambda6-thiophen-3-yl)-2-(5-phenyl-2H-1,2,3,4-tetrazol-2-yl)-N-[(pyridin-4-yl)methyl]acetamide], the IC50 is greater than 50 µM. Then `Cn1c(CC(=O)N(Cc2ccncc2)C2C=CS(=O)(=O)C2)nnc1-c1ccccc1` (centres unmarked) [I-443, N-(1,1-dioxo-2,3-dihydro-1lambda6-thiophen-3-yl)-2-(4-methyl-5-phenyl-4H-1,2,4-triazol-3-yl)-N-[(pyridin-4-yl)methyl]acetamide], with greater than 50 µM. Then `O=C1CCCN1c1ccc(CC(=O)N(Cc2ccncc2)C2C=CS(=O)(=O)C2)cc1` (centres unmarked) [I-444, N-(1,1-dioxo-2,3-dihydro-1lambda6-thiophen-3-yl)-2-[4-(2-oxopyrrolidin-1-yl)phenyl]-N-[(pyridin-4-yl)methyl]acetamide], with greater than 50 µM; and `O=C(Cc1csc(C2CCCC2)n1)N(Cc1ccncc1)C1C=CS(=O)(=O)C1` (centres unmarked) [I-445, 2-(2-cyclopentyl-1,3-thiazol-4-yl)-N-(1,1-dioxo-2,3-dihydro-1lambda6-thiophen-3-yl)-N-[(pyridin-4-yl)methyl]acetamide], with greater than 50 µM. Then `Cc1nn(CC(=O)N(Cc2ccncc2)C2C=CS(=O)(=O)C2)cc1-c1ccccc1` (centres unmarked) [I-446, N-(1,1-dioxo-2,3-dihydro-1lambda6-thiophen-3-yl)-2-(3-methyl-4-phenyl-1H-pyrazol-1-yl)-N-[(pyridin-4-yl)methyl]acetamide], with greater than 50 µM. As to `O=C(Nc1ccc(CC(=O)N(Cc2ccncc2)C2C=CS(=O)(=O)C2)cc1)C1CC1` (centres unmarked) [I-448, N-(4-{[(1,1-dioxo-2,3-dihydro-1lambda6-thiophen-3-yl)[(pyridin-4-yl)methyl]carbamoyl]methyl}phenyl)cyclopropanecarboxamide], the IC50 is greater than 50 µM.

Take `O=C(Cc1ccc(C2CCCC2O)cc1)N(Cc1ccncc1)C1C=CS(=O)(=O)C1` (centres unmarked) [I-449, N-(1,1-dioxo-2,3-dihydro-1lambda6-thiophen-3-yl)-2-[4-(2-hydroxycyclopentyl)phenyl]-N-[(pyridin-4-yl)methyl]acetamide]: the IC50 was greater than 50 µM.

Regarding `O=C(Cn1ccc(-c2ccccc2)n1)N(Cc1ccncc1)C1C=CS(=O)(=O)C1` (centres unmarked) [I-450, N-(1,1-dioxo-2,3-dihydro-1lambda6-thiophen-3-yl)-2-(3-phenyl-1H-pyrazol-1-yl)-N-[(pyridin-4-yl)methyl]acetamide], the IC50 was greater than 50 µM. For `COc1ccc(COc2cc(CC(=O)N(Cc3ccnc(OC)c3)C3C=CS(=O)(=O)C3)ccc2-c2ccc(F)cn2)cc1` (centres unmarked) [I-451, N-(1,1-dioxo-2,3-dihydro-1lambda6-thiophen-3-yl)-2-[4-(5-fluoropyridin-2-yl)-3-[(4-methoxyphenyl)methoxy]phenyl]-N-[(2-methoxypyridin-4-yl)methyl]acetamide] the value was greater than 50 µM. As to `CC(=O)N(C)CC(C(=O)N(Cc1ccncc1)C1C=CS(=O)(=O)C1)c1ccc(-c2ccc(F)cc2)cc1` (centres unmarked) [I-452, N-(1,1-dioxo-2,3-dihydro-1lambda6-thiophen-3-yl)-2-{4′-fluoro-[1,1′-biphenyl]-4-yl}-3-(N-methylacetamido)-N-[(pyridin-4-yl)methyl]propanamide], the IC50 was greater than 50 µM. For `COc1cc(CN(C(=O)Cc2ccc(-n3ccc(F)cc3=O)cc2F)C2C=CS(=O)(=O)C2)ccn1` (centres unmarked) [I-453, N-(1,1-dioxo-2,3-dihydro-1lambda6-thiophen-3-yl)-2-[2-fluoro-4-(4-fluoro-2-oxo-1,2-dihydropyridin-1-yl)phenyl]-N-[(2-methoxypyridin-4-yl)methyl]acetamide] the value was greater than 50 µM; for `O=C(Cn1ncc2ccccc21)N(Cc1ccncc1)C1C=CS(=O)(=O)C1` (centres unmarked) [I-454, N-(1,1-dioxo-2,3-dihydro-1lambda6-thiophen-3-yl)-2-(1H-indazol-1-yl)-N-[(pyridin-4-yl)methyl]acetamide], greater than 50 µM; for `O=C(Cn1ncc2ccc(C(F)(F)F)cc21)N(Cc1ccncc1)C1C=CS(=O)(=O)C1` (centres unmarked) [I-455, N-(1,1-dioxo-2,3-dihydro-1lambda6-thiophen-3-yl)-N-[(pyridin-4-yl)methyl]-2-[6-(trifluoromethyl)-1H-indazol-1-yl]acetamide], greater than 50 µM. Then `CN1CCc2c(ccn2-c2ccc(CC(=O)N(Cc3ccccc3)C3C=CS(=O)(=O)C3)cc2)C1` (centres unmarked) [I-456, N-benzyl-N-(1,1-dioxo-2,3-dihydro-1lambda6-thiophen-3-yl)-2-(4-{5-methyl-1H,4H,5H,6H,7H-pyrrolo[3,2-c]pyridin-1-yl}phenyl)acetamide], with greater than 50 µM; and `O=C1CC(c2ccc(F)cc2)CCN1CC(=O)N(Cc1ccncc1)C1C=CS(=O)(=O)C1` (centres unmarked) [I-457, N-(1,1-dioxo-2,3-dihydro-1lambda6-thiophen-3-yl)-2-[4-(4-fluorophenyl)-2-oxopiperidin-1-yl]-N-[(pyridin-4-yl)methyl]acetamide], with greater than 50 µM; and `CN(CC(C(=O)N(Cc1ccncc1)C1C=CS(=O)(=O)C1)c1ccc(-c2ccc(F)cc2)cc1)S(C)(=O)=O` (centres unmarked) [I-458, N-(1,1-dioxo-2,3-dihydro-1lambda6-thiophen-3-yl)-2-{4′-fluoro-[1,1′-biphenyl]-4-yl}-3-(N-methylmethanesulfonamido)-N-[(pyridin-4-yl)methyl]propanamide], with greater than 50 µM. Then `CN(C)C(=O)CC(C(=O)N(Cc1ccnc(C(C)(C)O)c1)C1C=CS(=O)(=O)C1)c1ccc(S(F)(F)(F)(F)F)cc1` (centres unmarked) [I-460, N-(1,1-dioxo-2,3-dihydro-1lambda6-thiophen-3-yl)-N-{[2-(2-hydroxypropan-2-yl)pyridin-4-yl]methyl}-N′,N′-dimethyl-2-[4-(pentafluoro-lambda6-sulfanyl)phenyl]butanediamide], with greater than 50 µM; and `O=C(Cc1ccc(N2CCC2)cc1)N(Cc1ccncc1)C1C=CS(=O)(=O)C1` (centres unmarked) [I-461, 2-[4-(azetidin-1-yl)phenyl]-N-(1,1-dioxo-2,3-dihydro-1lambda6-thiophen-3-yl)-N-[(pyridin-4-yl)methyl]acetamide], with greater than 50 µM; and `O=C(Cc1ccc(-n2cccc2)cc1)N(CCc1ccncc1)C1C=CS(=O)(=O)C1` (centres unmarked) [I-462, N-(1,1-dioxo-2,3-dihydro-1lambda6-thiophen-3-yl)-N-[2-(pyridin-4-yl)ethyl]-2-[4-(1H-pyrrol-1-yl)phenyl]acetamide], with greater than 50 µM.

Turning to `O=C(Cc1ccc(OC2CCC2)cc1)N(Cc1ccncc1)C1C=CS(=O)(=O)C1` (centres unmarked) [I-463, 2-(4-cyclobutoxyphenyl)-N-(1,1-dioxo-2,3-dihydro-1lambda6-thiophen-3-yl)-N-[(pyridin-4-yl)methyl]acetamide], the IC50 was greater than 50 µM. As to `O=C(Cc1ccc(N2CCCC2)cc1)N(Cc1ccncc1)C1C=CS(=O)(=O)C1` (centres unmarked) [I-464, N-(1,1-dioxo-2,3-dihydro-1lambda6-thiophen-3-yl)-N-[(pyridin-4-yl)methyl]-2-[4-(pyrrolidin-1-yl)phenyl]acetamide], the IC50 is greater than 50 µM. For `O=C(Cc1ccc(-c2ccc(F)cc2)cc1C(F)(F)F)N(Cc1ccncc1)C1C=CS(=O)(=O)C1` (centres unmarked) [I-465, N-(1,1-dioxo-2,3-dihydro-1lambda6-thiophen-3-yl)-2-[4′-fluoro-3-(trifluoromethyl)-[1,1′-biphenyl]-4-yl]-N-[(pyridin-4-yl)methyl]acetamide] the value was greater than 50 µM; for `O=C(Cc1ccc(-c2nccs2)cc1)N(Cc1ccncc1)C1C=CS(=O)(=O)C1` (centres unmarked) [I-466, N-(1,1-dioxo-2,3-dihydro-1lambda6-thiophen-3-yl)-N-[(pyridin-4-yl)methyl]-2-[4-(1,3-thiazol-2-yl)phenyl]acetamide], greater than 50 µM; for `O=C(Cc1ccc(-n2cccc2)cc1)N(Cc1ccccn1)C1C=CS(=O)(=O)C1` (centres unmarked) [I-467, N-(1,1-dioxo-2,3-dihydro-1lambda6-thiophen-3-yl)-N-[(pyridin-2-yl)methyl]-2-[4-(1H-pyrrol-1-yl)phenyl]acetamide], greater than 50 µM. Take `N#Cc1cc(-n2cccc2)ccc1CC(=O)N(Cc1ccncc1)C1C=CS(=O)(=O)C1` (centres unmarked) [I-468, 2-[2-cyano-4-(1H-pyrrol-1-yl)phenyl]-N-(1,1-dioxo-2,3-dihydro-1lambda6-thiophen-3-yl)-N-[(pyridin-4-yl)methyl]acetamide]: the IC50 is greater than 50 µM. Then `Cc1ccc(-c2ccc(CC(=O)N(Cc3ccncc3)C3C=CS(=O)(=O)C3)cc2)cc1` (centres unmarked) [I-470, N-(1,1-dioxo-2,3-dihydro-1lambda6-thiophen-3-yl)-2-{4′-methyl-[1,1′-biphenyl]-4-yl}-N-[(pyridin-4-yl)methyl]acetamide], with greater than 50 µM.
